What was measured:
[1] = system: patients with moderate to severe atopic dermatitis; assay: EASI-75 (difference from placebo) of ICP-332 versus other drugs for treating AD as monotherapy, not head-to-head; type: in vivo, human; details: ICP-332 4 weeks, other drugs 12 or 16 weeks, approved recommended doses, phase III published literature
Text: The treatment period for ICP-332 was 4 weeks, while it was 12 or 16 weeks for other drugs with their approved recommended doses from phase III studies. The data of other drugs are based on available published literature.
This is a randomized, double-blind, placebo-controlled, phase 2 study to evaluate the safety, efficacy, pharmacokinetics, and pharmacodynamics of ICP-332 (Compound A) in patients with moderate to severe atopic dermatitis.
A total of 75 subjects with 25 subjects in each group are enrolled. • (1) ICP-332 80 mg, QD for 28 days (40 mg*2 tablets+Placebo*1 tablet) • (2) ICP-332 120 mg. QD for 28 days (40 mg*3 tablets) • (3) Placebo. QD for 28 days (Placebo*3 tablets)

[2] = system: patients with moderate to severe atopic dermatitis; assay: Phase 2 randomized, double-blind, placebo-controlled clinical study of ICP-332 in atopic dermatitis patients; type: in vivo, human; details: Week 4

## Cn1cc(Nc2ncc(Cl)c(N3C[C@@H]4CN(C(=O)CC#N)C[C@]4(C)C3)n2)cn1 [ICP-332]
[1]
  EASI-75 (difference from placebo) versus other drugs: best EASI-75 value over placebo
[2]; 80 mg qd oral
  EASI 50, EASI 75, EASI 90, IGA 0/1: significant improvements
  percent change from baseline in EASI total score: significantly reduced the EASI total score (p<0.0001)
[2]; 120 mg qd oral
  EASI 50, EASI 75, EASI 90, IGA 0/1: significant improvements
  percent change from baseline in EASI total score: significantly reduced the EASI total score (p<0.0001)

Reference: patent US20260355197A1, “METHOD FOR TREATING ATOPIC DERMATITIS” (BEIJING INNOCARE PHARMA TECH CO., LTD., priority 2023, published 2026)
